Measured values as given in patent US8680109B2, “Combination product comprising SRC kinase inhibitor AZDO530 and an antioestrogen or EGFR-TK-inhibitor” (AstraZeneca AB, priority 2004, dated 2014).

Experiments:
'Tam-R' cells [1] = assay: Test (e) cell invasion assay; format: cell-based; settings: Homo sapiens, 72 h; read-out: IC50 versus 'Tam-R' cells, Test (e) cell invasion
Procedure: (§1) ‘Tam-R’ MCF7 breast cancer cells were maintained in phenol red-free RPMI medium supplemented with 5% charcoal-stripped, steroid-depleted foetal calf serum, antibiotics as above, glutamine (200 mM) and 4-hydroxytamoxifen (10^−7M in ethanol).
A modification of the method previously described by Hiscox et al. (Breast Cancer Research Treatment, 2000, 59, 245-254) was used to study the invasive nature of the breast cancer cells.
Transwell polycarbonate filter membrane inserts (6.5 mm diameter, 8 μm pore size from Costar Inc.) were placed in 24-well tissue-culture plates and were coated with Matrigel (0.4 μg/ml) at ambient temperature overnight in a sterile tissue culture hood. After rehydrating the wells with serum-free RPMI for 1 hour at 37° C., cells were seeded onto the membrane inserts at 5×10^4 cells/well with or without appropriate concentrations of inhibitor compounds (or combinations of inhibitor compounds) and 600 μl of culture medium was added such that the membrane inserts were immersed. The wells were cultured at 37° C. for 72 hours, after which the non-invasive cells and Matrigel were removed from the inside of the wells with a cotton swab. […] Cell invasion was quantified with a fluorescent microscope by viewing 5 separate fields per membrane at 2-fold magnification and counting the number of cells in each field. […]

[2] = test system: MCF7 human breast cancer cells; assay: Test (b) time lapse analysis of cell motility; format: cell-based
Procedure: (b) Time Lapse Analysis of Cell Motility
Cells were cultured in 6-well tissue-culture plates and allowed to reach log phase growth. Plates were transferred to the heated stage of an inverted microscope and cell cultures were overlaid with mineral oil to minimise pH changes in the medium during the cell motility analysis. Cell motility was recorded over a period of 6 hours using a video camera coupled to a time lapse video recording system. For quantitation of cell motility, images were captured at 10 minute intervals during video playback and the movement of at least 10 individual cells was tracked using Optimas image analysis software (Media Cybernetics UK, Finchampstead, Berkshire, GB). Cell movement was plotted as either cell position (x-position vs. y-position) or total distance migrated (μm) as a function of time. To determine the directional persistence of cell motility, paths of cells were plotted such that all paths start from the origin.

[3] = test system: human tumour cell line A549; assay: Test (h) in vitro microdroplet migration assay; format: cell-based; settings: read-out: activity, Test (h) (migratory inhibitory IC50)
Procedure: (h) In Vitro Microdroplet Migration Assay
This assay determines the ability of a test compound (or combination of test compounds) to inhibit the migration of adherent mammalian cell lines, for example the human tumour cell line A549.
RPMI medium (Sigma) containing 10% FCS, 1% L-glutamine and 0.3% agarose (Difco Catalogue No. 0142-01) was warmed to 37° C. in a water bath. A stock 2% aqueous agar solution was autoclaved and stored at 42° C. An aliquot (1.5 ml) of the agar solution was added to RPMI medium (10 ml) immediately prior to its use. A549 cells (Accession No. ATCC CCL185) were suspended at a concentration of 2×10^7 cells/ml in the medium and maintained at a temperature of 37° C.
A droplet (2 μl) of the cell/agarose mixture was transferred by pipette into the centre of each well of a number of 96-well, flat bottomed non-tissue-culture-treated microtitre plate (Bibby Sterilin Catalogue No. 642000). The plates were placed briefly on ice to speed the gelling of the agarose-containing droplets. Aliquots (90 μl) of medium which had been cooled to 4° C. were transferred into each well, taking care not to disturb the microdroplets. Test compounds were diluted from a 10 mM stock solution in DMSO using RPMI medium as described above. […]
Migration was assessed visually and the distance of migration was measured back to the edge of the agar droplet. […]

[4] = test system: MCF7 human breast cancer cells; assay: Test (f) cell attachment assay; format: cell-based
Procedure: (f) Cell Attachment Assay
The wells of a 96-well plate were coated with Matrigel (50 μg/well) and air-dried overnight in a sterile tissue culture hood. Cells growing in log phase were harvested and adjusted to a concentration of 2×10^5 cells per ml in culture medium containing appropriate concentrations of inhibitor compounds (or combinations of inhibitor compounds). Aliquots of cells (2×10^4 cells) were seeded into each well and the plate was incubated at 37° C. for 30 minutes. The wells were washed twice with PBS to remove unbound cells prior to the addition to each well of 150 μl of MTT solution (0.5 mg/ml in serum-free medium). Plates were incubated for a further 4 hours at 37° C. to allow the development of […] crystals within the cells. The MTT solution was removed from the wells and the dye was extracted at 4° C. overnight with 10% TX-100 solution. The absorbance was measured with a Titerteck Multiskan ELISA plate reader (Flow Laboratories, UK) equipped with a 540 nm filter. Cell attachment in response to the treatments was calculated as a percentage of the cells adhered in the control (untreated) wells.

[5] = test system: MCF7 human breast cancer cells ('wild type', 'Tam-R', 'Tam/TKI-R'); assay: Test (a) cell growth studies; format: cell-based; settings: MCF7, 168 h
From the text: Various test methods have been described by Knowlden et al., Endocrinology, 2003, 144, 1032-1044 and include one or more of:— • (i) tamoxifen-responsive ‘wild type’ MCF7 human breast cancer cells; • (ii) an endocrine-insensitive variant of such MCF7 breast cancer cells that was designated ‘Tam-R’ (tamoxifen-resistant); and • (iii) a variant of such ‘TAM-R’ cells that was also insensitive to treatment with the EGFR TKI ZD1839 that was designated ‘Tam/TKI-R’.
Tamoxifen-responsive ‘wild type’ MCF7 breast cancer cells were routinely cultured in phenol red-free RPMI medium supplemented with 5% foetal calf serum plus penicillin (10 IU/ml), streptomycin (10 μg/ml) and fungizone (2.5 μg/ml). Cultures were maintained at 37° C. in a humidified atmosphere with 5% CO2. […]
Cell monolayers were grown for 7 days in serum growth factor free DCCM medium in the presence of increasing concentrations of the individual components of the above-mentioned combinations or with the combinations themselves. Cell population growth was evaluated by means of trypsin dispersion of the cell monolayers and cell number was measured using a Beckman Coulter counter (available from Beckman Coulter Limited, Luton, GB). […]

'Tam-R' cells [6] = assay: Test (d) fibronectin cell migration assay; format: cell-based; settings: Homo sapiens, 20 h; read-out: IC50 versus 'Tam-R' cells, Test (d) fibronectin cell migration
Procedure: as §1
(d) Fibronectin Cell Migration Assay
The polycarbonate filter membranes of Transwell chambers (6.5 mm diameter, 8.0 μm pore size from Costar Inc., Cambridge, Mass., USA) were coated on the underside of the membrane with 50 μg/ml fibronectin in serum-free RPMI for 2 hours at 37° C. The polycarbonate membranes were rinsed once with PBS. Cells were harvested and resuspended at a concentration of 5×10^5 cells per ml in serum-free RPMI. Aliquots of cells (100 μl; 5×10^4 cells) were seeded into each well to which 500 μl of experimental medium had been added. In control experiments, cells were allowed to migrate toward the underside of the membrane for 20 hours. In test experiments, appropriate concentrations of inhibitor compounds (or combinations of inhibitor compounds) were added and cells were allowed to migrate toward the underside of the membrane for 20 hours. […] The number of migrating cells was counted at 20-fold magnification using an inverted microscope.

[7] = test system: human and/or mouse carcinomas grown as tumours in athymic nude mice; assay: Test (i) in vivo xenograft growth assays; settings: AZD0530 used alone; oral once daily
From the text: (i) In Vivo Xenograft Growth Assays
This test measures the ability of combination product of the invention to inhibit the growth of human and/or mouse carcinomas grown as tumours in athymic nude mice. Suitable cancer cells for injection include human MCF7 breast cancer cells (obtainable from American Type Culture Collection, 10801 University Boulevard, Manassas, Va. 20110-2209; Cat. No. HTB-22), c-Src transfected mouse 3T3 fibroblast cancer cells (transfection with an activating mutant (Y530F) of human c-Src via a similar procedure to that described by Shalloway et al., Cell, 1987, 49, 65-73), human LoVo colorectal cancer cells (obtainable from European Collection of Cell Cultures, ECACC, CAMR, Salisbury, Wiltshire, SP4 0JG, UK; Cat. No. CCL 229), human CaLu-6 lung cancer cells (ATCC Cat. No. HTB-56) and human A549 NSCLC cancer cells (ATCC Cat. No. CCL185).
A total of about 1×10^6 human cancer cells in 0.1 ml of a 1:1 mixture of matrigel (Beckton Dickinson Catalogue No. 40234) and Eagle's Minimum Essential Medium (EMEM; Gibco Catalogue No 21090-022) were injected subcutaneously into a flank of each test mouse and the resultant tumours were allowed to grow for about 10 days. […] Tumour size was measured twice weekly using callipers and a theoretical volume was calculated. The effect on tumour growth was assessed.

[8] = test system: tamoxifen resistant MCF7 breast cancer cells; settings: cited from earlier work

Row | IC50 ('Tam-R' cells [1]) [nM] | IC50 [2] [nM] | IC50 [3] [nM] | IC50 [4] [nM] | IC50 [5] [nM] | IC50 ('Tam-R' cells [6]) [nM] | Structure (SMILES) | activity (active dose), Test (i) xenograft growth [7] [mg/kg/day] | basal and TGFα stimulated growth [8]
1 | ~100 | 100 to 1000 | 100 to 5000 | 100 to 1000 | 100 to 5000 | ~100 | CN1CCN(CCOc2cc(OC3CCOCC3)c3c(Nc4c(Cl)ccc5c4OCO5)ncnc3c2)CC1 [AZD0530, 4-(6-chloro-2,3-methylenedioxyanilino)-7-[2-(4-methylpiperazin-1-yl)ethoxy]-5-tetrahydropyran-4-yloxyquinazoline] | 1 to 200 | 
2 |  |  |  |  |  |  | COc1cc2ncnc(Nc3ccc(F)c(Cl)c3)c2cc1OCCCN1CCOCC1 [ZD1839, N-(3-chloro-4-fluorophenyl)-7-methoxy-6-(3-morpholinopropoxy)quinazolin-4-amine] |  | could be inhibited
